Columns and labels:
BRAF V600E = molecular target: T1, BRAF V600E (Homo sapiens, UniProt P15056, V600E); assay: Cellular assay of target protein degradation, T-Rex 293 cells stably transfected with HA-BRAF_V600E (HA immunofluorescence, high content imaging); type: cell-based; conditions: T-Rex 293 HA-BRAF V600E; for DC50: half maximal degradation, read-out: BRaf V600E DC50; for Dmax: maximum degradation observed
T1 construct: expressed in transfected cells
In short: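 Doxycycline-induced (1 ng/mL) T-Rex 293 cells expressing HA-BRAF V600E treated 24 h at 37 °C with compound at 1 μM to 0.1 nM final in 0.1% DMSO. Remaining HA-tagged protein quantified by fixed-cell anti-HA immunofluorescence and high-content imaging; DC50 and Dmax (% of control) derived.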

BRAF G466V = molecular target: T2, BRAF G466V (Homo sapiens, UniProt P15056, G466V); assay: Cellular assay of target protein degradation, T-Rex 293 cells stably transfected with HA-BRAF G466V (HA immunofluorescence, high content imaging); type: cell-based; conditions: T-Rex 293 HA-BRAF G466V; for DC50: half maximal degradation, read-out: BRaf G466V DC50; for Dmax: maximum degradation observed
T2 construct: expressed in transfected cells
In short: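 Doxycycline-induced (0.75 ng/mL) cells treated 24 h at 37 °C with compound from 30 nM to 3 pM (0.1% DMSO). After fixation and permeabilisation, HA-tagged BRAF G466V immunostained and quantified by high-content imaging. DC50 and Dmax (percent of control) derived.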

T1 sequence (P15056 whole entry V600E): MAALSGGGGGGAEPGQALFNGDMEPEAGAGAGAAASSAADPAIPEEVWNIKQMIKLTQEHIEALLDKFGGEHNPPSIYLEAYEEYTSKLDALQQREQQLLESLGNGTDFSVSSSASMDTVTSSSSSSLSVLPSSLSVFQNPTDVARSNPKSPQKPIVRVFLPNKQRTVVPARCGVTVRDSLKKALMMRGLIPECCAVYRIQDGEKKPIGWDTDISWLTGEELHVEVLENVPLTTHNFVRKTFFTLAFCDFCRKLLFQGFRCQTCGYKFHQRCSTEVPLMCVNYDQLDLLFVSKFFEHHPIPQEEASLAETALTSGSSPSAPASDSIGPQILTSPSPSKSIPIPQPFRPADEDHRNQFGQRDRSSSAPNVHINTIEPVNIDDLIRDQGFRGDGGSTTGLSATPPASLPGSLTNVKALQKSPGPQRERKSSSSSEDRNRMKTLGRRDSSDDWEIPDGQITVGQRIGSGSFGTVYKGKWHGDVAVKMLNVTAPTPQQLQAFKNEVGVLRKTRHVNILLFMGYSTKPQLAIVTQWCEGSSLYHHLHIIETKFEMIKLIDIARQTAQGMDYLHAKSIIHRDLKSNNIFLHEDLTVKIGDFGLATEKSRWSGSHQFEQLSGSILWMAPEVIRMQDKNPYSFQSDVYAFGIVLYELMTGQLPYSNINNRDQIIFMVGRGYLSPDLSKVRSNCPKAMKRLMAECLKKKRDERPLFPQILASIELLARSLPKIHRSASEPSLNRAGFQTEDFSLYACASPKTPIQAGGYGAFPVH
T2 sequence (P15056 whole entry G466V): as the sequence (P15056 whole entry V600E) above, with G466V, E600V counted along it

SMILES	DC50 (BRAF V600E)	Dmax (BRAF V600E)	DC50 (BRAF G466V)	Dmax (BRAF G466V)
O=C1CC[C@@H](N2Cc3cc(OC[C@@H](O)CN4CC5(C4)CN(c4ccc(-c6cnc7[nH]cc(C(=O)c8c(F)ccc(NS(=O)(=O)N9CC[C@@H](F)C9)c8F)c7c6)cc4)C5)ccc3C2=O)C(=O)N1 [Compound 166, (3R)-N-{3-[5-(4-{6-[(2)S-3-({2-[(3R)-2,6-dioxopiperidin-3-yl]-1-oxo-2,3-dihydro-1H-isoindol-5-yl}oxy)-2-hydroxypropyl]-2,6-diazaspiro[3.3]heptan-2-yl}phenyl)-1H-pyrrolo[2,3-b]pyridine-3-carbonyl]-2,4-difluorophenyl}-3-fluoropyrrolidine-1-sulfonamide]	5 to 50 nM	35 to 70%	1 to 10 nM	> 70%
CN(CC1CCN(c2ccc3c(c2)CN(C2CCC(=O)NC2=O)C3=O)CC1)[C@H]1C[C@@H](Oc2ccc(-c3cnc4[nH]cc(C(=O)c5c(F)ccc(NS(=O)(=O)N6CC[C@@H](F)C6)c5F)c4c3)cc2)C1 (stereo partly drawn) [Compound 167, (3R)-N-[2,4-difluoro-3-(5-{4-[(1s,3s)-3-[({1-[2-(2,6-dioxopiperidin-3-yl)-1-oxo-2,3-dihydro-1H-isoindol-5-yl]piperidin-4-yl}methyl)(methyl)amino]cyclobutoxy)phe-nyl}-1H-pyrrolo[2,3-b]pyridine-3-carbonyl)phenyl]-3-fluoropyrrolidine-1-sulfonamide]	5 to 50 nM	35 to 70%	1 to 10 nM	35 to 70%
O=C1CCC(c2ccc(C3CCN(CC4CCN(c5ccc(-c6cnc7[nH]cc(C(=O)c8c(F)ccc(NS(=O)(=O)N9CC[C@@H](F)C9)c8F)c7c6)cc5)CC4)CC3)cc2F)C(=O)N1 (stereo partly drawn) [Compound 168, (3R)-N-[3-(5-{4-[4-({4-[4-(2,6-dioxopiperidin-3-yl)-3-fluorophenyl]piperidin-1-yl}methyl)piperidin-1-yl]phenyl}-1H-pyrrolo[2,3-b]pyridine-3-carbonyl)-2,4-difluorophenyl]-3-fluoropyrrolidine-1-sulfonamide]	5 to 50 nM	< 35%	1 to 10 nM	> 70%
CN1C(=O)CCC(N2Cc3cc(C4CCN(CC5CCN(c6ccc(-c7cnc8[nH]cc(C(=O)c9c(F)ccc(NS(=O)(=O)N%10CC[C@@H](F)C%10)c9F)c8c7)cc6)CC5)CC4)ccc3C2=O)C1=O (stereo partly drawn) [Compound 169, (3R)-N-[2,4-difluoro-3-(5-{4-[4-({4-[2-(1-methyl-2,6-dioxopiperidin-3-yl)-1-oxo-2,3-dihydro-1H-isoindol-5-yl]piperidin-1-yl}methyl)piperidin-1-yl]phenyl}-1H-pyrrolo[2,3-b]pyridine-3-carbonyl)phenyl]-3-fluoropyrrolidine-1-sulfonamide]	> 500 nM		> 30 nM	
O=C1CC[C@H](N2Cc3cc(C[C@H](O)CN4CC5(C4)CN(c4ccc(-c6cnc7[nH]cc(C(=O)c8c(F)ccc(NS(=O)(=O)N9CC[C@@H](F)C9)c8F)c7c6)cc4)C5)ccc3C2=O)C(=O)N1 [Compound 170, (3R)-N-{3-[5-(4-{6-[(2S)-3-{2-[(3S)-2,6-dioxopiperidin-3-yl]-1-oxo-2,3-dihydro-1H-isoindol-5-yl}-2-hydroxypropyl]-2,6-diazaspiro[3.3]heptan-2-yl}phenyl)-1H-pyrrolo[2,3-b]pyridine-3-carbonyl]-2,4-difluorophenyl}-3-fluoropyrrolidine-1-sulfonamide]	50 to 500 nM	35 to 70%	1 to 10 nM	> 70%
O=C1CC[C@H](N2Cc3cc(CC[C@H](O)CN4CC5(C4)CN(c4ccc(-c6cnc7[nH]cc(C(=O)c8c(F)ccc(NS(=O)(=O)N9CC[C@@H](F)C9)c8F)c7c6)cc4)C5)ccc3C2=O)C(=O)N1 [Compound 172, (3R)-N-{3-[5-(4-{6-[(2S)-4-{2-[(3S)-2,6-dioxopiperidin-3-yl]-1-oxo-2,3-dihydro-1H-isoindol-5-yl}-2-hydroxybutyl]-2,6-diazaspiro[3.3]heptan-2-yl}phenyl)-1H-pyrrolo[2,3-b]pyridine-3-carbonyl]-2,4-difluorophenyl}-3-fluoropyrrolidine-1-sulfonamide]	5 to 50 nM	35 to 70%	1 to 10 nM	> 70%
O=C1CC[C@@H](N2Cc3cc(CC[C@H](O)CN4CC5(C4)CN(c4ccc(-c6cnc7[nH]cc(C(=O)c8c(F)ccc(NS(=O)(=O)N9CC[C@@H](F)C9)c8F)c7c6)cc4)C5)ccc3C2=O)C(=O)N1 [Compound 173, (3R)-N-{3-[5-(4-{6-[(2S)-4-{2-[(3R)-2,6-dioxopiperidin-3-yl]-1-oxo-2,3-dihydro-1H-isoindol-5-yl}-2-hydroxybutyl]-2,6-diazaspiro[3.3]heptan-2-yl}phenyl)-1H-pyrrolo[2,3-b]pyridine-3-carbonyl]-2,4-difluorophenyl}-3-fluoropyrrolidine-1-sulfonamide]	5 to 50 nM	35 to 70%	1 to 10 nM	> 70%
O=C1CCC(N2Cc3cc(N4CCC(CN5CCC(C6(c7ccc(-c8cnc9[nH]cc(C(=O)c%10c(F)ccc(NS(=O)(=O)N%11CC[C@@H](F)C%11)c%10F)c9c8)cc7)CC6)CC5)CC4)ccc3C2=O)C(=O)N1 (stereo partly drawn) [Compound 174, (3R)-N-{3-[5-(4-{1-[1-({1-[2-(2,6-dioxopiperidin-3-yl)-1-oxo-2,3-dihydro-1H-isoindol-5-yl]piperidin-4-yl}methyl)piperidin-4-yl]cyclopropyl}phenyl)-1H-pyrrolo[2,3-b]pyridine-3-carbonyl]-2,4-difluorophenyl}-3-fluoropyrrolidine-1-sulfonamide]	5 to 50 nM	< 35%	1 to 10 nM	> 70%
COc1cc(C2CCN(CC3CCN(c4ncc(-c5cnc6[nH]cc(C(=O)c7c(F)ccc(NS(=O)(=O)N8CC[C@@H](F)C8)c7F)c6c5)cn4)CC3)CC2)cc2c1C(=O)N(C1CCC(=O)NC1=O)C2 (stereo partly drawn) [Compound 175, (3R)-N-[3-(5-{2-[4-({4-[2-(2,6-dioxopiperidin-3-yl)-7-methoxy-1-oxo-2,3-dihydro-1H-isoindol-5-yl]piperidin-1-yl}methyl)piperidin-1-yl]pyrimidin-5-yl}-1H-pyrrolo[2,3-b]pyridine-3-carbonyl)-2,4-difluorophenyl]-3-fluoropyrrolidine-1-sulfonamide]	5 to 50 nM	35 to 70%	< 1 nM	> 70%
CC1(c2ccc(C3CCN(CC4CCN(c5ccc(-c6cnc7[nH]cc(C(=O)c8c(F)ccc(NS(=O)(=O)N9CC[C@@H](F)C9)c8F)c7c6)cc5)CC4)CC3)cc2F)CCC(=O)NC1=O (stereo partly drawn) [Compound 176, (3R)-N-[2,4-difluoro-3-(5-{4-[4-({4-[3-fluoro-4-(3-methyl-2,6-dioxopiperidin-3-yl)phenyl]piperidin-1-yl}methyl)piperidin-1-yl]phenyl}-1H-pyrrolo[2,3-b]pyridine-3-carbonyl)phenyl]-3-fluoropyrrolidine-1-sulfonamide]	5 to 50 nM	< 35%	1 to 10 nM	35 to 70%
O=C1CCC(N2Cc3cc(C4CCN(CC5CCN(c6ccc(-c7cnc8[nH]cc(C(=O)c9c(F)ccc(NS(=O)(=O)N%10CCCC%10)c9F)c8c7)cc6)CC5)CC4)ccc3C2=O)C(=O)N1 (stereo not drawn) [Compound 177, N-[3-(5-{4-[4-({4-[2-(2,6-dioxopiperidin-3-yl)-1-oxo-2,3-dihydro-1H-isoindol-5-yl]piperidin-1-yl}methyl)piperidin-1-yl]phenyl}-1H-pyrrolo[2,3-b]pyridine-3-carbonyl)-2,4-difluorophenyl]pyrrolidine-1-sulfonamide]	< 5 nM	35 to 70%	< 1 nM	> 70%

From US12180193B2, “Accelerating fibrosarcoma protein degrading compounds and associated methods of use” (Arvinas Operations, Inc., priority 2020, dated 2024)
